Data taken from patent US7326721B2 (Hypnion, Inc., priority 2003, dated 2008).
Read-outs that look alike come from different tables or passages of the source.

Columns and labels:
M1 muscarinic receptor [1] = target: T1, M1 muscarinic receptor (Homo sapiens, UniProt P11229); set-up: purchased PerkinElmer, Inc., Wellesley, Mass; host or cells: CHO cells; details: reference compounds; read-out: Ki of reference compounds, M1 binding assay; cited from earlier work
T1 sequence (P11229 1-460): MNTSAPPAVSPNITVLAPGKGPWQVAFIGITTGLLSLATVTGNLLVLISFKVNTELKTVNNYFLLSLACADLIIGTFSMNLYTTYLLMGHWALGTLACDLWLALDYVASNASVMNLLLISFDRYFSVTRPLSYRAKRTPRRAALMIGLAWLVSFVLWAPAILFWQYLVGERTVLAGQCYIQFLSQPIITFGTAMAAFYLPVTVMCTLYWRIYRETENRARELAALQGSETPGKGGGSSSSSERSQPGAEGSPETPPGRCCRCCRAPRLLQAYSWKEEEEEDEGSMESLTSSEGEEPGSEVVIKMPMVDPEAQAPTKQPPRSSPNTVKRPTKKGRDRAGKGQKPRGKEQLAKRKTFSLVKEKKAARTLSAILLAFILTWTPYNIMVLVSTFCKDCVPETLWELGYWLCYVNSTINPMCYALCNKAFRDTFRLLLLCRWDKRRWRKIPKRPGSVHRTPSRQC

adult male Wistar rats = test: SCORE-2000 sleep-wakefulness, locomotor activity and body temperature monitoring; assay type: in vivo, rat
H1 histamine receptor = target: T2, H1 histamine receptor (Bos taurus, UniProt P30546); test: Histamine H1 competitive binding assay ([3H]pyrilamine); set-up: species or system bovine; details: bovine receptor; read-out: H1 binding
T2 construct: the receptors were obtained from bovine cerebellar membrane tissue; from tissue; host or cells: bovine cerebellar membranes
T2 sequence (P30546 whole entry): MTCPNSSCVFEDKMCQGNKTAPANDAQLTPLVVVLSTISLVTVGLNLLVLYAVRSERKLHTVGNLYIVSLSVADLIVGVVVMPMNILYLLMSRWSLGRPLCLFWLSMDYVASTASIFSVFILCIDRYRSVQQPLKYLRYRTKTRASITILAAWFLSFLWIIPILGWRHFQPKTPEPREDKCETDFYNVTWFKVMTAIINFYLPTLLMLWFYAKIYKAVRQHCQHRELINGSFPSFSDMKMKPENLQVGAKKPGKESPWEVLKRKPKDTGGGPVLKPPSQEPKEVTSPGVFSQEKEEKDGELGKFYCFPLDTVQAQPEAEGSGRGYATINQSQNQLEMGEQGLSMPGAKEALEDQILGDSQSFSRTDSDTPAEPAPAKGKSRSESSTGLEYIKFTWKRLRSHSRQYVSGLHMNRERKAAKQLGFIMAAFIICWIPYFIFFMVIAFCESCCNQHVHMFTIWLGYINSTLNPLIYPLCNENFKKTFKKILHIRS

M1 muscarinic receptor [2] = target: T1, M1 muscarinic receptor; test: Muscarinic M1 binding assay ([3H]-scopolamine, N-methyl chloride)
M2 muscarinic receptor = target: T3, M2 muscarinic receptor (Homo sapiens, UniProt P08172); test: Muscarinic M2 binding assay
T3 sequence (P08172 1-466): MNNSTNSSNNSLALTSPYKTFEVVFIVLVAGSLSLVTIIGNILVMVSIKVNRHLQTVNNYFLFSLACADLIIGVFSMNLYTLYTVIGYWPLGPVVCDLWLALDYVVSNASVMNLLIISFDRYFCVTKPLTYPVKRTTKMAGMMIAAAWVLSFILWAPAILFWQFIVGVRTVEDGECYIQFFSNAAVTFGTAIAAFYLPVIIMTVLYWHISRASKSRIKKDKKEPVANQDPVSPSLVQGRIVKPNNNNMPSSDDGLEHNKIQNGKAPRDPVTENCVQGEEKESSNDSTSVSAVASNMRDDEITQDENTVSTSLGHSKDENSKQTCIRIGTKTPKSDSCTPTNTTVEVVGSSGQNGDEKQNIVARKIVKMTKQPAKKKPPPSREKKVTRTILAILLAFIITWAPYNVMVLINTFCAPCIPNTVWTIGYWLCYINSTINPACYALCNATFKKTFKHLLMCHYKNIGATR

M3 muscarinic receptor = M3 muscarinic receptor (Homo sapiens, UniProt P20309); test: Muscarinic M3 binding assay
Sequence of M3 muscarinic receptor (P20309 whole entry): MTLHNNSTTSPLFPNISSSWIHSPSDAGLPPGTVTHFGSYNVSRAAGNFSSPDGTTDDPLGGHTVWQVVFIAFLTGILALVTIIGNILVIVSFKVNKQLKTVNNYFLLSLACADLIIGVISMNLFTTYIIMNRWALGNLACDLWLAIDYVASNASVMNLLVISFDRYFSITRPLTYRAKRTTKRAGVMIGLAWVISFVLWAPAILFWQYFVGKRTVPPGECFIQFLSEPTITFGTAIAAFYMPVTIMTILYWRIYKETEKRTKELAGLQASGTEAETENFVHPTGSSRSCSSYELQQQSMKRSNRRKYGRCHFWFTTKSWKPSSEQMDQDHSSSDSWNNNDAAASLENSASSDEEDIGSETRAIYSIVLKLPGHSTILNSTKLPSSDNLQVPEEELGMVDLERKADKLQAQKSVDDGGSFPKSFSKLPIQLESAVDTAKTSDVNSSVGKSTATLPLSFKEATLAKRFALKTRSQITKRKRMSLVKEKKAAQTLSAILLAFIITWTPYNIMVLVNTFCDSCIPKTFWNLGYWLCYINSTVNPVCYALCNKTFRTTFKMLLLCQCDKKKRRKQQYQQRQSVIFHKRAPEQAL

[3] = target: Adrenergic, Alpha 1, Non-selective; test: Table 12 panel: Adrenergic, Alpha 1; assay type: binding; details: read-out: α1 binding
[4] = target: Adrenergic, Alpha 2, Non-selective; test: Table 12 panel: Adrenergic, Alpha 2; assay type: binding; details: read-out: α2 binding
human H1 receptor = human H1 receptor (Homo sapiens, UniProt P35367); test: H1(hR) binding (Table 28)
Sequence of human H1 receptor (P35367 whole entry): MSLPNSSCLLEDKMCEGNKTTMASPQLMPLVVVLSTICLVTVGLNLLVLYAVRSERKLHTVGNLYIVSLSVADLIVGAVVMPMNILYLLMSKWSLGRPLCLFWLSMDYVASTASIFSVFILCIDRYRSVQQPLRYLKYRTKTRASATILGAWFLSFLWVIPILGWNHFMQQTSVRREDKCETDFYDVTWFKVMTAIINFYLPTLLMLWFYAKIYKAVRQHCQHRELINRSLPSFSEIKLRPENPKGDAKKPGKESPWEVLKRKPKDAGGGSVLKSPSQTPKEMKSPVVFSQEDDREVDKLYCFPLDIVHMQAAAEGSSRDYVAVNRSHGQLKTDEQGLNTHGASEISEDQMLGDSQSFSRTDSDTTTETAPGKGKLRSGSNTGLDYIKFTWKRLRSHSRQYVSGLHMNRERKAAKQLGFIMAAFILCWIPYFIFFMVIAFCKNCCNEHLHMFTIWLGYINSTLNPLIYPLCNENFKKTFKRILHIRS
Description: (§1) The comparative data is shown in Table 28, unless otherwise noted, binding was measured with the bovine receptors, H1(hR) is the human H1 receptor, 5HT2a (h) is the human 5HT2a receptor. Binding numbers are presented in nM values.

human 5HT2a receptor = human 5HT2a receptor (Homo sapiens, UniProt P28223); test: 5HT2a (h) binding (Table 28)
Sequence of human 5HT2a receptor (P28223 whole entry): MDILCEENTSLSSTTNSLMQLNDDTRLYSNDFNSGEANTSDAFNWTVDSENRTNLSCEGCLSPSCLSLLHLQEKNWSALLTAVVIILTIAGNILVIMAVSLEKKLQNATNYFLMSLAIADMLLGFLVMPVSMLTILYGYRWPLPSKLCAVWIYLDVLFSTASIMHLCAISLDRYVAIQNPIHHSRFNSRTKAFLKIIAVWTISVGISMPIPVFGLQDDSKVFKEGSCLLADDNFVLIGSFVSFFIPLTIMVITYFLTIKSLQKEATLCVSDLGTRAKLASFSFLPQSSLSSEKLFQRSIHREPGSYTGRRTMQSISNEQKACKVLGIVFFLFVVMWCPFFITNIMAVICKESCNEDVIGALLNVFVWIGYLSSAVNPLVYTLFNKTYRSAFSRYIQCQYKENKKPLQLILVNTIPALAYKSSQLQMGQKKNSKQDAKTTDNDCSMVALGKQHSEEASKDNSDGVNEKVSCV

Dopamine, D1 = Dopamine, D1 (UniProt P21728); test: Dopamine, D1 (human recombinant) binding assay
[5] = target: Dopamine, D1 (human recombinant) (UniProt P14416); test: Dopamine D2 binding assay (printed as D1 in b555)
Description: In vitro binding assays are used to determine H1 binding (i.e., primary target binding) and M1, M2 and M3 binding (i.e., off target binding). […] Similar assays are performed with H1 and dopamine receptors (D1 and D2), and with H1 and adrenergic receptors (α1 and α2).
Dopamine, D1 (human recombinant) binding assay was performed according to published procedures. See, e.g., Jarvie, et al. J. Recept Res., 13(1–4): 573–90 (1993); and Gundlach, et al. Life Sciences, 35(19): 1981–8 (1984) with modifications

5HT2a (rat) = 5HT2a (rat) (Rattus norvegicus, UniProt P14842); test: 5HT2a (rat) binding (Table 28)
Sequence of 5HT2a (rat) (P14842 whole entry): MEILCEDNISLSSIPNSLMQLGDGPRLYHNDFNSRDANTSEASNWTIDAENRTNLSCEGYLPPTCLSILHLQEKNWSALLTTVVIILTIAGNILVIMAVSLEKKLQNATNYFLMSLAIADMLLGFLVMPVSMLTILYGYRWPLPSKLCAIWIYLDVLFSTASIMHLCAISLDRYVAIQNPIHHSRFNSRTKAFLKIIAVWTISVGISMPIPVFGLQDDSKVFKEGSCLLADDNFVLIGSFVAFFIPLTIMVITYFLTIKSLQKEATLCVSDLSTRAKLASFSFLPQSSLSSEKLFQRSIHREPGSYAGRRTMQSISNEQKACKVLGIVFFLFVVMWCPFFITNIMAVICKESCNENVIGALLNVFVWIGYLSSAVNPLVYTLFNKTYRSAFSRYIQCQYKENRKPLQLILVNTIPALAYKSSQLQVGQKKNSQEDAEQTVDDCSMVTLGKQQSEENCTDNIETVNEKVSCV
Description: as §1

hERG = hERG (Homo sapiens, UniProt Q12809); details: human, 10 µM, pH 7.4
Sequence of hERG (Q12809 whole entry): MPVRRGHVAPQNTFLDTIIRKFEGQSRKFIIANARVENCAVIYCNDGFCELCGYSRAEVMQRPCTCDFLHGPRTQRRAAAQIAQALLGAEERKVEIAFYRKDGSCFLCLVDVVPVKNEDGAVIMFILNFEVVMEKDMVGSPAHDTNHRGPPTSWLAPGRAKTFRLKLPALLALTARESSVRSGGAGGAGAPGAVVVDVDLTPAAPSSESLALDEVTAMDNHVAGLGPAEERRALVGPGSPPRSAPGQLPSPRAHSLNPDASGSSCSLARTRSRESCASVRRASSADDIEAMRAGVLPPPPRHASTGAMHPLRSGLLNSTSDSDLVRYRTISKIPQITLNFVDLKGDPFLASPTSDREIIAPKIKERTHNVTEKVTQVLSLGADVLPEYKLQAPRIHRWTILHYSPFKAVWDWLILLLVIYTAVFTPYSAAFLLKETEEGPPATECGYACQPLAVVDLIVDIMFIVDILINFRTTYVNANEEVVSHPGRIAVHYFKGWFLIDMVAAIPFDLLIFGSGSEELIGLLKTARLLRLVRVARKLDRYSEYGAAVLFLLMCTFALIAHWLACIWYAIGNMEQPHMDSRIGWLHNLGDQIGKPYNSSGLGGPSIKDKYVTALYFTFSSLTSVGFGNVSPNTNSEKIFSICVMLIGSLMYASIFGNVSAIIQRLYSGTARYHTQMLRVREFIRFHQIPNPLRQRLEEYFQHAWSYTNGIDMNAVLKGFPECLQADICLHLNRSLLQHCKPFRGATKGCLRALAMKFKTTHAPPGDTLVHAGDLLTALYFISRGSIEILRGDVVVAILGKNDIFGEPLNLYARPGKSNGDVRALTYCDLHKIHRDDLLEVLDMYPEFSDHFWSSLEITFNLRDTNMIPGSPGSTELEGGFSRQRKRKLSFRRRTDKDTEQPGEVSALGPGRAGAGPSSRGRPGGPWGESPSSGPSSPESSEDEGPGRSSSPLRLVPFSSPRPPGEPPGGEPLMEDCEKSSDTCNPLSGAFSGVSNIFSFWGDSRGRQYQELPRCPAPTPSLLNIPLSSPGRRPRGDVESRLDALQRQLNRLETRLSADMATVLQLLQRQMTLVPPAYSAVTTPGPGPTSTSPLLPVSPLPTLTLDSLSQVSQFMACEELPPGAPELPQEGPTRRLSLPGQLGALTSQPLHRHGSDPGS

| SMILES | Ki (M1 muscarinic receptor [1]) | LUSB 3 mg/kg (adult male Wistar rats; 3 mg/kg) | LUSB 10 mg/kg (adult male Wistar rats; 10 mg/kg) | NREM cumul. 10 mpk (adult male Wistar rats; 10 mpk) | Ki (H1 histamine receptor) | Ki (M1 muscarinic receptor [2]) | Ki (M2 muscarinic receptor) | Ki (M3 muscarinic receptor) | Ki [3] | Ki [4] | Ki (human H1 receptor) | Ki (human 5HT2a receptor) | Ki (Dopamine, D1) | Ki [5] | Ki (5HT2a (rat)) | HERG (hERG) |
| --- | --- | --- | --- | --- | --- | --- | --- | --- | --- | --- | --- | --- | --- | --- | --- | --- |
| C[N+]1(C)CCC(OC(=O)C(c2ccccc2)c2ccccc2)CC1 [4-DAMP methiodide] | 0.00027 µM | – | – | – | – | – | – | – | – | – | – | – | – | – | – | – |
| COc1ccc2c(c1)COc1ccc(F)cc1C2=C1CCN(CCCC(=O)O)CC1 [Compound 10520] | – | 4.9 ± 1.7 | 10.0 ± 2.2 | 41 ± 8 | 0.0225 µM | > 10 µM | > 10 µM | > 10 µM | 1.09 µM | > 10 µM | 0.043 µM | 0.396 µM | > 10 µM | > 10 µM | 0.0558 µM | 56.00% |
